Results published in patent publication US8283373B2, “Inhibitors of cytosolic phospholipase A2” (Pfizer Inc., priority 2005, dated 2012).

Tests used:
[1] = test system: TXB2; assay: Rat Whole Blood Assay (A23187-stimulated TXB2); type: cell-based; conditions: A23187 5 μM
Description: Fresh blood was collected in heparinized tubes by cardiac puncture of male Sprague-Dawley rats. Aliquots of blood (0.6 mL) were incubated with either 6 μL solvent (DMSO), or 6 μL of test compounds at various concentrations for 15 minutes at 37° C. This was followed by incubation of the blood with 6 μL of calcium ionophore, A23187 (Sigma C-7522) diluted in DMSO for 10 min at 37° C. The final concentration of A23187 was 5 μM. DMSO (6 μL) was added in the unstimulated controls. The reactions were stopped by mixing 60 μL cold EDTA to give a final concentration of 20 mM. The blood was centrifuged at 6,500 rpm for 10 min on a microcentrifuge to obtain plasma. A 70 μL aliquot of plasma was mixed with 400 μL cold methanol for protein precipitation. After incubation at −80° C. for 30 min, the supernatant was obtained by centrifuging at 6,500 rpm for 10 min, and was assayed for TXB2 according to the manufacturer's procedure (Assay Designs, Inc.'s ELISA kit #900-002).

[2] = molecular target: T1, cPLA2α (Homo sapiens, UniProt P47712); assay: GLU Micelle Assay; type: biochemical
T1 sequence (P47712 1-749): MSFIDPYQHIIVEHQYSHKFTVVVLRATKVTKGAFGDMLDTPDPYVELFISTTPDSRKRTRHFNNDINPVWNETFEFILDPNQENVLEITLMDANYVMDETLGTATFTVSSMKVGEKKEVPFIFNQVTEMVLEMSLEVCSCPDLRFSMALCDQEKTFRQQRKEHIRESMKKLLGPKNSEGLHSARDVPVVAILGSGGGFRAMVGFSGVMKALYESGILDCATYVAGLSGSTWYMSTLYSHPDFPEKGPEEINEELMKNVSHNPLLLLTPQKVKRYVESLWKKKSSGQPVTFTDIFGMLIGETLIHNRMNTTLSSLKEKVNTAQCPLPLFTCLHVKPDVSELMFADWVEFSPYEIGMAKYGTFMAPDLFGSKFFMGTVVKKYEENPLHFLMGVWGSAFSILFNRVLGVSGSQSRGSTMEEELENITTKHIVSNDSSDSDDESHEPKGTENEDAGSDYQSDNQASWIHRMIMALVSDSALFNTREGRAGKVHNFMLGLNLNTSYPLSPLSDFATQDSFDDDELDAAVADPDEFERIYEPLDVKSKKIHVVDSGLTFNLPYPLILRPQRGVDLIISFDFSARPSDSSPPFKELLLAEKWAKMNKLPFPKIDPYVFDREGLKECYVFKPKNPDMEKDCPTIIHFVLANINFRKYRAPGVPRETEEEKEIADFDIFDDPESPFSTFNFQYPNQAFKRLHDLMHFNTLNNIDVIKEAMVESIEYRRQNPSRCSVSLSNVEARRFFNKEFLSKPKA
Description: The assay was carried in a 96-well format using a fluorescent plate reader with a 355 nm excitation filter and a 460 nm emission filter (Lab Systems Fluoroscan II, Helsinki, Finland). The assay buffer contained 940 μM Triton X-100, 50 mM Hepes pH 7.4, 0.3 mM EDTA, 1 mM CaCl2 and 300 mM KCl. DTPC (1,2-O-tetradecyl-sn-glycero-3-phosphocholine, Avanti) at a final concentration of 120 μM was added the day of the experiment and GLU (7-Hydroxycoumarinyl-γ-linolenate, Biomol Research Lab, Inc.) at a final concentration of 90 μM was added immediately prior to each assay.
Compounds (10 μL) dissolved in DMSO were placed in duplicate wells of a black 96-well plate. Wells corresponding to the positive and negative controls contained DMSO without inhibitors. Just prior to the experiment, 200 μL assay buffer containing 90 μM GLU and 120 μM DTPC was added to all wells in the assay plate. Assay buffer (50 μL) was added to the negative, and 50 μL cPLA2α solution ([…] in assay buffer) was added to all other wells to initiate the reaction. The final concentration of enzyme was 1 μg/ml. The content of each well was mixed gently during the addition of the enzyme, and the plate was rapidly transferred to the fluorescent plate reader. The increase in fluorescence was read every 4 min for 84 min. The slope of the resulting line was determined and the inhibition was calculated using the equation below: Percent Inhibition=[1−(slope with inhibitor−slope negative control)/(slope positive control−slope negative control)]×100 Rat Whole Blood Assay

| SMILES | IC50 ([1]; Rattus norvegicus) | IC50 [2] | IC50 [1] |
| --- | --- | --- | --- |
| O=C(O)c1ccc(OCCc2c(CCNS(=O)(=O)Cc3ccccc3OCc3ccccc3)n(C(c3ccccc3)c3ccccc3)c3ccc(Cl)cc23)cc1 [Example 1, 4-{2-[2-[2-({[2-(benzyloxy)benzyl]sulfonyl}amino)ethyl]-5-chloro-1-(diphenylmethyl)-1H-indol-3-yl]ethoxy}benzoic acid] | 140 nM | 260 nM | – |
| O=C(O)c1ccc(OCCc2c(CCNS(=O)(=O)Cc3ccccc3O)n(C(c3ccccc3)c3ccccc3)c3ccc(Cl)cc23)cc1 [Example 2, 4-{2-[5-chloro-1-(diphenylmethyl)-2-(2-{[(2-hydroxybenzyl)sulfonyl]amino}ethyl)-1H-indol-3-yl]ethoxy}benzoic acid] | 120 nM | 190 nM | – |
| O=C(O)c1ccc(OCCc2c(CCNS(=O)(=O)Cc3c(Br)cccc3Br)n(C(c3ccccc3)c3ccccc3)c3ccc(Cl)cc23)cc1 [Example 3, 4-{2-[5-chloro-2-(2-{[(2,6-dibromobenzyl)sulfonyl]amino}ethyl)-1-(diphenylmethyl)-1H-indol-3-yl]ethoxy}benzoic acid] | 60 nM | 54 nM | – |
| Cc1cccc([N+](=O)[O-])c1CS(=O)(=O)NCCc1c(CCOc2ccc(C(=O)O)cc2)c2cc(Cl)ccc2n1C(c1ccccc1)c1ccccc1 [Example 4, 4-(2-{1-benzhydryl-5-chloro-2-[2-methyl-6-nitro-phenylmethanesulfonylamino)-ethyl-1-H-indol-3-yl}ethoxy)-benzoic acid] | – | 54 nM | 20 nM |
| O=C(O)c1ccc(OCCc2c(CCNS(=O)(=O)Cc3ccccc3C(F)(F)F)n(C(c3ccccc3)c3ccccc3)c3ccc(Cl)cc23)cc1 [Example 5, 4-(2-{5-chloro-1-(diphenylmethyl)-2-[2-({[2-(trifluoromethyl)benzyl]sulfonyl}amino)ethyl]-1H-indol-3-yl}ethoxy)benzoic acid] | 20 nM | 26 nM | – |
| O=C(O)c1ccc(OCCc2c(CCNS(=O)(=O)Cc3c(F)cccc3C(F)(F)F)n(C(c3ccccc3)c3ccccc3)c3ccc(Cl)cc23)cc1 [Example 6, 4-(2-{5-chloro-1-(diphenylmethyl)-2-[2-({[2-fluoro-6-(trifluoromethyl)benzyl]sulfonyl}amino)ethyl]-1H-indol-3-yl}ethoxy)benzoic acid] | 80 nM | 92 nM | – |
| O=C(O)c1ccc(CCCc2c(CCNS(=O)(=O)Cc3c(Br)cccc3Br)n(C(c3ccccc3)c3ccccc3)c3ccc(Cl)cc23)cc1 [Example 7, 4-{3-[5-chloro-2-(2-{[(2,6-dibromobenzyl)sulfonyl]amino}ethyl)-1-(diphenylmethyl)-1H-indol-3-yl]propyl}benzoic acid] | 30 nM | 18 nM | – |
| O=C(O)c1ccc(CCCc2c(CCNS(=O)(=O)Cc3c(Cl)cccc3Cl)n(C(c3ccccc3)c3ccccc3)c3ccc(Cl)cc23)cc1 [Example 8, 4-{3-[5-chloro-2-(2-{[(2,6-dichlorobenzyl)sulfonyl]amino}ethyl)-1-(diphenylmethyl)-1H-indol-3-yl]propyl}benzoic acid] | 20 nM | 24 nM | – |
| Cc1cccc([N+](=O)[O-])c1CS(=O)(=O)NCCc1c(CCCc2ccc(C(=O)O)cc2)c2cc(Cl)ccc2n1C(c1ccccc1)c1ccccc1 [Example 9] | – | 22 nM | 20 nM |
| CN(CCc1c(CCCc2ccc(C(=O)O)cc2)c2cc(Cl)ccc2n1C(c1ccccc1)c1ccccc1)S(=O)(=O)Cc1ccccc1C(F)(F)F [Example 11, 4-(3-{5-chloro-1-(diphenylmethyl)-2-[2-(methyl{[2-(trifluoromethyl)benzyl]sulfonyl}amino)ethyl]-1H-indol-3-yl}propyl)benzoic acid] | 380 nM | 280 nM | – |
| O=C(O)c1ccc(CCCc2c(CCNS(=O)(=O)Cc3c(C(F)(F)F)cccc3C(F)(F)F)n(C(c3ccccc3)c3ccccc3)c3ccc(Cl)cc23)cc1 [Example 12, 4-{3-[2-[2-({[2,6-bis(trifluoromethyl)benzyl]sulfonyl}amino)ethyl]-5-chloro-1-(diphenylmethyl)-1H-indol-3-yl]propyl}benzoic acid] | 40 nM | 21 nM | – |
| COC(=O)c1ccccc1CS(=O)(=O)NCCc1c(CCCc2ccc(C(=O)O)cc2)c2cc(Cl)ccc2n1C(c1ccccc1)c1ccccc1 [Example 13, 4-(3-{5-chloro-1-(diphenylmethyl)-2-[2-({[2-(methoxycarbonyl)benzyl]sulfonyl}amino)ethyl]-1H-indol-3-yl}propyl)benzoic acid] | 30 nM | 26 nM | – |
| O=Cc1ccccc1CS(=O)(=O)NCCc1c(CCCc2ccc(C(=O)O)cc2)c2cc(Cl)ccc2n1C(c1ccccc1)c1ccccc1 [Example 16, 4-{3-[5-chloro-1-(diphenylmethyl)-2-(2-{[(2-formylbenzyl)sulfonyl]amino}ethyl)-1H-indol-3-yl]propyl}benzoic acid] | 50 nM | 23 nM | – |
| O=C(O)c1ccc(CCCc2c(CCNS(=O)(=O)Cc3ccccc3CN3CCOCC3)n(C(c3ccccc3)c3ccccc3)c3ccc(Cl)cc23)cc1 [Example 17, 4-(3-{5-chloro-1-(diphenylmethyl)-2-[2-({[2-(morpholin-4-ylmethyl)benzyl]sulfonyl}amino)ethyl]-1H-indol-3-yl}propyl)benzoic acid] | 20 nM | 10 nM | – |
| CCN(CC)Cc1ccccc1CS(=O)(=O)NCCc1c(CCCc2ccc(C(=O)O)cc2)c2cc(Cl)ccc2n1C(c1ccccc1)c1ccccc1 [Example 18, 4-{3-[5-chloro-2-{2-[({2-[(diethylamino)methyl]benzyl}sulfonyl)amino]ethyl}-1-(diphenylmethyl)-1H-indol-3-yl]propyl}benzoic acid] | 40 nM | 25 nM | – |
| O=C(O)c1ccc(CCCc2c(CCNS(=O)(=O)Cc3ccccc3CO)n(C(c3ccccc3)c3ccccc3)c3ccc(Cl)cc23)cc1 [Example 19, 4-(3-{5-chloro-1-(diphenylmethyl)-2-[2-({[2-(hydroxymethyl)benzyl]sulfonyl}amino)ethyl]-1H-indol-3-yl}propyl)benzoic acid] | 30 nM | 22 nM | – |
| CN1CCN(Cc2ccccc2CS(=O)(=O)NCCc2c(CCCc3ccc(C(=O)O)cc3)c3cc(Cl)ccc3n2C(c2ccccc2)c2ccccc2)CC1 [Example 22, 4-[3-(5-chloro-1-(diphenylmethyl)-2-{2-[({2-[(4-methylpiperazin-1-yl)methyl]benzyl}sulfonyl)amino]ethyl}-1H-indol-3-yl)propyl]benzoic acid] | 80 nM | 21 nM | – |
| CC(c1ccccc1C(F)(F)F)S(=O)(=O)NCCc1c(CCCc2ccc(C(=O)O)cc2)c2cc(Cl)ccc2n1C(c1ccccc1)c1ccccc1 (stereo not shown) [Example 23, 4-[3-(5-chloro-1-(diphenylmethyl)-2-{2-[({1-[2-(trifluoromethyl)phenyl]ethyl}sulfonyl)amino]ethyl}-1H-indol-3-yl)propyl]benzoic acid] | 40 nM | 105 nM | – |
| O=C(O)c1ccc(CCCc2c(CCNS(=O)(=O)Cc3ccccc3Br)n(C(c3ccccc3)c3ccccc3)c3ccc(Cl)cc23)cc1 [Example 24, 4-{3-[2-(2-{[(2-bromobenzyl)sulfonyl]amino}ethyl)-5-chloro-1-(diphenylmethyl)-1H-indol-3-yl]propyl}benzoic acid] | 30 nM | 8 nM | – |
| Cc1c(Cl)ccc(F)c1CS(=O)(=O)NCCc1c(CCCc2ccc(C(=O)O)cc2)c2cc(Cl)ccc2n1C(c1ccccc1)c1ccccc1 [Example 26] | – | 22 nM | 30 nM |
